Measurements reported in PubChem BioAssay (NCI).
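Grown in 96-well plates, cells were treated for 48 hours with each compound at five concentrations. Insufficient inhibition: endpoint recorded as highest concentration tested. Definition used: TGI = concentration required for complete inhibition of growth.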

Columns and labels:
Test in all cases: NCI tumour cell line growth inhibition, 48 h
MALME-3M melanoma = system: MALME-3M melanoma
OVCAR-8 ovarian = system: OVCAR-8 ovarian
UACC-62 melanoma = system: UACC-62 melanoma
OVCAR-3 ovarian = system: OVCAR-3 ovarian
M14 melanoma = system: M14 melanoma
NCI-H522 lung = system: NCI-H522 lung
NCI-H226 lung = system: NCI-H226 lung
BT-549 breast = system: BT-549 breast
786-0 renal = system: 786-0 renal
OVCAR-5 ovarian = system: OVCAR-5 ovarian
HCC-2998 colon = system: HCC-2998 colon
MDA-N = system: MDA-N
UACC-257 melanoma = system: UACC-257 melanoma
KM12 colon = system: KM12 colon
SW-620 colon = system: SW-620 colon
SNB-19 CNS = system: SNB-19 CNS
MDA-MB-435 = system: MDA-MB-435
SK-MEL-28 melanoma = system: SK-MEL-28 melanoma

SMILES	TGI (MALME-3M melanoma) [µM]	TGI (OVCAR-8 ovarian) [µM]	TGI (UACC-62 melanoma) [µM]	TGI (OVCAR-3 ovarian) [µM]	TGI (M14 melanoma) [µM]	TGI (NCI-H522 lung) [µM]	TGI (NCI-H226 lung) [µM]	TGI (BT-549 breast) [µM]	TGI (786-0 renal) [µM]	TGI (OVCAR-5 ovarian) [µM]	TGI (HCC-2998 colon) [µM]	TGI (MDA-N) [µM]	TGI (UACC-257 melanoma) [µM]	TGI (KM12 colon) [µM]	TGI (SW-620 colon) [µM]	TGI (SNB-19 CNS) [µM]	TGI (MDA-MB-435) [µM]	TGI (SK-MEL-28 melanoma) [µM]
C=C1[C@H](OC(=O)C(C)C)[C@@H](OC(C)=O)[C@@H](OC(C)=O)C(C)(C)[C@@H]2O[C@H]2[C@@H](C)C(=O)[C@@]2(OC(C)=O)C[C@@](C)(OC(C)=O)[C@H](OC(C)=O)[C@@H]2[C@H]1OC(C)=O	> 100	> 100	> 100	> 100	> 100	> 100	> 100	> 100	> 100	> 100	> 100	> 100	> 100	> 100	> 100	> 100	> 100	
CC1=[N+]([O-])C(C)(C)N(N=O)C1(C)C	> 10	> 10		> 10	> 10	> 10	> 10	> 10	> 10	> 10	> 10	> 10	> 10	> 10	> 10	> 10	> 10	
CC1C(=NO)C(C)C(c2ccccc2)N(N=O)C1c1ccccc1 (stereo not given)	34.6	41.5	27.2	65.7	29.5	34.5	55.2	89.8	42.7		33.8	36.3	54.8	29.8	42	50.5	44.8	32.3
c1ccc(N=C(N2CCOCC2)N(CCN2CCOCC2)c2ccccc2)cc1	> 100	> 100	> 100	> 100	> 100	> 100	> 100	> 100	> 100		> 100	> 100	> 100	> 100	> 100	> 100	> 100	> 100
COc1ccc(C2=Nn3c(nc4sc(C)c(C)c4c3=O)SC2)cc1	> 100	> 100	> 100	> 100		> 100	> 100	> 100	> 100	> 100	> 100	> 100	> 100	> 100	> 100		> 100	> 100
Cc1nnc2sc(Cl)nn12	85.6	> 100	18.9	33.6	28.1	23.9	86.2	46.7	86.8	44.5	31.6	48.9		28.6	16.6	> 100	20.2	34.2
C1=Nc2ccc(cc2)N=Cc2ccccc2OCc2cccc(n2)COc2ccccc21	> 100	> 100	> 100	> 100	> 100	> 100	> 100	> 100	> 100	> 100	> 100	> 100	> 100	> 100	> 100	75.1	> 100	
CCN(CC)C(=S)SNc1ccc(S(N)(=O)=O)cc1	97.3	66	> 100		> 67.7	29.5	> 100	> 100	> 71	> 72.3	> 100	> 100	> 100	> 100	19.3	> 100	> 100	> 100
CCOC(=O)C(NC(=O)C(CCCCNP(=O)(OCC)OCC)NC(=O)C(C)NC(C)=O)C(C)C (stereo not given)	> 100	> 100		> 100	> 100		> 100	> 100	> 100	> 100	> 100	> 100	> 100	> 100	> 100	> 100	> 100	> 100
O=C(NO)c1ccc(OCc2cccc(Cl)c2)cc1		33.3	21.7	> 64.1	> 45.8	19.2	36	48	19.1	> 40.8	24.4	35.4	46.8	29.9	> 100	> 100	44	65.1
CC(C)(Br)C(Br)CCC(=CCBr)CBr (mixture of isomers)	13.5	6.36	4.4		4.29	3.12	28.3	5.62	3.84	37.2	26.6	4.68	15.6	10.2	7.18	31.1	14.1	6.86
N#CC1(C#N)NC(c2cccnc2)C(C#N)(C#N)NC1c1cccnc1 (stereo not given)	> 100	> 100	> 100	> 100	> 100		> 100	> 100	> 100	> 100	> 100	> 100	> 100	> 100	> 100		> 100	> 100
